Results as given in patent US20060069132A1, “Azolecarboxamide herbicides” (priority 2004, published 2006).

Columns and labels:
large crabgrass = experiment: Test B pre-/postemergence herbicide test; assay type: in vivo, Digitaria sanguinalis; settings: for Crabgrass, Large plant response rating: postemergence
Procedure, shortened: (§1)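 Visual rating, 0 (no effect) to 100 (complete control), versus untreated controls after 13–15 d in greenhouse. Pre- and postemergence applications (postemergence plants 2–18 cm, 1–4 leaves); flooded paddy arm at 2-leaf stage. Compounds in non-phytotoxic solvent plus surfactant.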

wild oat = experiment: Test B postemergence herbicide test; assay type: in vivo, Avena fatua; settings: postemergence
Procedure, shortened: (§2)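 Visual ratings, 0 (no effect) to 100 (complete control), made versus controls after 13–15 d greenhouse. Paddy plants treated at 2-leaf stage; postemergence plants at 1- to 4-leaf stage, 2–18 cm tall.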

pigweed = experiment: Test B pre-/postemergence herbicide test; assay type: in vivo, Amaranthus retroflexus; settings: for Pigweed plant response rating: postemergence
Procedure, shortened: as §1

giant foxtail = experiment: Test B pre-/postemergence herbicide test; assay type: in vivo, Setaria faberi; settings: for Foxtail, Giant plant response rating: postemergence
Procedure, shortened: as §1

wheat = experiment: Test B postemergence herbicide test; assay type: in vivo, Triticum aestivum; set-up: key to Wheat plant response rating: 0 = no effect, 100 = complete control; settings: postemergence
Procedure, shortened: as §2

blackgrass = experiment: Test B postemergence herbicide test; assay type: in vivo, Alopecurus myosuroides; settings: postemergence
Procedure, shortened: (§3)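 Plants grow to 1- to 4-leaf stage (2–18 cm) for postemergence spraying, or to 2-leaf stage for the paddy test. Formulated compound is applied. Greenhouse holding lasts 13–15 days. Response is scored visually relative to controls, 0 no effect to 100 complete control; a dash means no result.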

cocklebur = experiment: Test B pre-/postemergence herbicide test; assay type: in vivo, Xanthium strumarium; settings: for Cocklebur plant response rating: postemergence
Procedure, shortened: (§4)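 Species tested were Echinochloa crus-galli, Ipomoea coccinea, Xanthium strumarium and Oryza sativa, treated both before emergence and at the 1- to 4-leaf stage; rice and barnyardgrass were also tested under flooding at 2 leaves. Greenhouse incubation lasted 13–15 days before visual 0–100 scoring.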

rice = experiment: Test B flooded paddy test; assay type: in vivo, Oryza sativa; settings: 1000 g ai/ha, scale 0 to 100 (0 no effect, 100 complete control)
Procedure, shortened: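 Read-out: visual comparison with controls, scored 0 to 100, where 100 means complete control and 0 no effect. Formulated chemicals were applied postemergence to plants 2–18 cm tall (1- to 4-leaf), or to flooded-paddy plants at the 2-leaf stage, then held 13 to 15 days under glass.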

barnyardgrass = experiment: Test B flooded paddy test; assay type: in vivo, Echinochloa crus-galli; settings: 1000 g ai/ha, scale 0 to 100 (0 no effect, 100 complete control)
Procedure, shortened: as §3

corn = experiment: Test B pre-/postemergence herbicide test; assay type: in vivo, Zea mays; settings: for Corn plant response rating: postemergence
Procedure, shortened: as §1

lambsquarters = experiment: Test B pre-/postemergence herbicide test; assay type: in vivo, Chenopodium album; settings: for Lambsquarters plant response rating: postemergence
Procedure, shortened: as §1

morningglory = experiment: Test B pre-/postemergence herbicide test; assay type: in vivo, Ipomoea coccinea; settings: for Morningglory plant response rating: postemergence
Procedure, shortened: as §4

Surinam grass = experiment: Test B pre-/postemergence herbicide test; assay type: in vivo, Urochloa decumbens; settings: for Surinam Grass plant response rating: postemergence
Procedure, shortened: as §1

velvetleaf = experiment: Test B pre-/postemergence herbicide test; assay type: in vivo, Abutilon theophrasti; settings: for Velvetleaf plant response rating: postemergence
Procedure, shortened: as §1

[1] = tested on: small flower umbrella sedge; experiment: Test B flooded paddy test; assay type: in vivo, Cyperus difformis; settings: 1000 g ai/ha, scale 0 to 100 (0 no effect, 100 complete control)
Procedure, shortened: as §3

[2] = 125 g ai/ha, 0 = no effect, 100 = complete control, preemergence
[3] = 500 g ai/ha, visual rating, 0 = no effect, 100 = complete control, preemergence
[4] = 125 g ai/ha, visual rating, scale 0 (no effect) to 100 (complete control)
[5] = 500 g ai/ha, scale 0 to 100, 0 is no effect, 100 is complete control

**Q.** What does the source list for `CCn1nc(C(C)(C)C)cc1C(=O)Nc1cccc(C(=O)N2CC=CC2)c1` [Compound 286]?
**A.** Crabgrass, Large plant response rating (0 to 100 scale) (large crabgrass; [2]): 0; Plant response rating, Crabgrass, Large (large crabgrass; [3]): 100; Crabgrass, Large plant response rating (large crabgrass; [4]): 0; Crabgrass, Large plant response rating (large crabgrass; [5]): 10; Oat, Wild plant response rating (wild oat; [4]): 30; Oat, Wild plant response rating (wild oat; [5]): 40; Pigweed plant response rating (0 to 100 scale) (pigweed; [2]): 100; Plant response rating, Pigweed (pigweed; [3]): 100; Pigweed plant response rating (pigweed; [4]): 60; Pigweed plant response rating (pigweed; [5]): 100; Foxtail, Giant plant response rating (0 to 100 scale) (giant foxtail; [2]): 10; Plant response rating, Foxtail, Giant (giant foxtail; [3]): 90; Foxtail, Giant plant response rating (giant foxtail; [4]): 20; Foxtail, Giant plant response rating (giant foxtail; [5]): 50; Wheat plant response rating (wheat; [4]): 20; Wheat plant response rating (wheat; [5]): 30; Blackgrass plant response rating (blackgrass; [4]): 10; Blackgrass plant response rating (blackgrass; [5]): 20; Cocklebur plant response rating (0 to 100 scale) (cocklebur; [2]): 0; Plant response rating, Cocklebur (cocklebur; [3]): 0; Cocklebur plant response rating (cocklebur; [4]): 10; Cocklebur plant response rating (cocklebur; [5]): 20; Rice plant response rating (rice): 70; Barnyardgrass plant response rating (barnyardgrass): 90; Corn plant response rating (0 to 100 scale) (corn; [2]): 0; Plant response rating, Corn (corn; [3]): 50; Corn plant response rating (corn; [4]): 0; Corn plant response rating (corn; [5]): 10; Lambsquarters plant response rating (0 to 100 scale) (lambsquarters; [2]): 100; Plant response rating, Lambsquarters (lambsquarters; [3]): 100; Lambsquarters plant response rating (lambsquarters; [4]): 10; Lambsquarters plant response rating (lambsquarters; [5]): 70; Morningglory plant response rating (0 to 100 scale) (morningglory; [2]): 0; Plant response rating, Morningglory (morningglory; [3]): 0; Morningglory plant response rating (morningglory; [4]): 0; Morningglory plant response rating (morningglory; [5]): 0; Surinam Grass plant response rating (0 to 100 scale) (Surinam grass; [2]): 10; Plant response rating, Surinam Grass (Surinam grass; [3]): 60; Surinam Grass plant response rating (Surinam grass; [4]): 10; Surinam Grass plant response rating (Surinam grass; [5]): 20; Velvetleaf plant response rating (0 to 100 scale) (velvetleaf; [2]): 0; Plant response rating, Velvetleaf (velvetleaf; [3]): 60; Velvetleaf plant response rating (velvetleaf; [4]): 10; Velvetleaf plant response rating (velvetleaf; [5]): 60; Sedge, Umbrella plant response rating [1]: 80
